{"source": "patent US8637480B2", "about": "“Mitochondrial function-improving agent” (National University Corporation Kumamoto University, priority 2009, dated 2014)", "key": {"[1]": {"test_system": "LSD1 target genes such as PGC-1α in 3T3-L1 cells", "conditions": "24 hours, 10^−4 M (clorgyline 10^−5 M)", "description": "(12) Effects of Various Types of MAO Inhibitors on LSD1 Target Gene Group (FIG. 13)\nThereafter, RNA analysis was carried out. Expression analysis was carried out as described above. The expression level of PGC-1α or the like was standardized against the internal control gene 36B4. The value was given as a multiple of induction to a control treated with a vehicle."}, "[2]": {"test_system": "LSD1 target genes including PGC-1α", "conditions": "high fat diet 6 weeks, 10 mg/kg intraperitoneally every other day, versus PBS"}, "[3]": {"test_system": "dimethylated H3K4 at LSD1 target gene promoters in 3T3-L1 cells", "assay": "Chromatin immunoprecipitation (ChIP) assay for methylation of H3K4", "type": "cell-based, mouse", "description": "(3) Chromatin Immunoprecipitation (ChIP) Assay for Detecting Methylation of 4th Lysine Residue of Histone H3 (H3K4) and Binding of LSD1 (FIG. 3 and FIG. 4)\nA DNA-protein complex of 3T3-L1 cells was crosslinked using 1% formalin, and chromatin was then fragmented using a water tank ultrasonic processor. The chromatin fragments were incubated at 4° C. overnight in the presence of an antibody directed against methyl-H3K4, LSD1 or BHC80. Thereafter, the reaction product was recovered using agarose beads to which protein A and protein G had been bound. DNA was isolated, and real-time PCR was then carried out using the following primer set"}, "[4]": {"test_system": "mPGC-1α promoter (pGL3-PGC-1α reporter) in 3T3-L1 cells", "assay": "PGC-1α promoter activity by luciferase assay", "type": "cell-based, mouse", "conditions": "adipose differentiation induced for 24 hours", "description": "(4) Analysis of PGC-1α Promoter Activity by Luciferase Assay (FIG. 5)\nIn order to construct pGL3-PGC-1α (PGC-1α/Luc) that is a luciferase reporter vector containing an mPGC-1α promoter, a 3707 bps promoter fragment from −3627 to +80 was amplified by PCR, using primers containing a MluI site and a XhoI site at the 5′-terminus and 3′-terminus thereof, respectively. Luciferase assay was carried out using Dual-Luciferase Reporter Assay System (Promega) in accordance with protocols included therewith. 3T3-L1 cells were co-transfected with the pGL3-PGC-1α reporter vector and a pRL-TK reference vector, and adipose differentiation was induced in the presence or absence of TC for 24 hours. Thereafter, luciferase activity was measured. When siRNA was applied, it was introduced 24 hours before transfection with the reporter."}, "3T3-L1 cells": {"test_system": "3T3-L1 cells", "assay": "Mitochondrial biosynthesis in 3T3-L1 cells by JC-1 staining and flow cytometry", "type": "cell-based, mouse", "conditions": "tranylcypromine 10^−3 or 10^−4 M, flow cytometry", "description": "For the measurement of mitochondrial biosynthesis, cells were stained with a fluorescent dye JC-1 (Molecular Probes), and they were then analyzed by flow cytometry. JC-1 binds to the mitochondrial inner membrane to emit green fluorescence, and forms a red fluorescent aggregate, depending on membrane potential. Accordingly, the amount of mitochondria can be evaluated by detecting the green fluorescence, whereas the amount of mitochondrial electron transport can be evaluated by detecting the red fluorescence. […] Subsequently, the cells were allowed to come into contact with 5 μg/ml JC-1 in a medium at 37° C. for 15 minutes, and they were then suspended in PBS, followed by FACS analysis. The green fluorescence and the red fluorescence were detected by FL1 and FL2 settings, respectively. The value indicates a mean fluorescence intensity in each setting."}, "[5]": {"test_system": "PGC-1α gene expression in 3T3-L1 cells", "assay": "Expression analysis of PGC-1α gene and the like by quantitative real-time PCR", "type": "cell-based, mouse", "conditions": "standardized against 36B4, versus control siRNA or vehicle", "description": "(2) Expression Analysis of PGC-1α gene and the Like by Quantitative Real-time PCR (FIG. 2)\nTotal RNA was extracted using Trizol reagent (Invitrogen). Quantitative RT-PCR was carried out using Fast SYBR Green System (Applied Biosciences). […] The value is given as a multiple of induction to a sample into which control siRNA has been introduced or a sample treated with a vehicle. Statistical significant difference is indicated by *p<0.05, **p<0.01, with respect to control (the same applies below). The following primers were used."}, "[6]": {"test_system": "LSD1 target genes in 3T3-L1 cells", "assay": "Comprehensive analysis of LSD1 target genes in 3T3-L1 cells using microarray", "type": "cell-based, mouse", "conditions": "for expression of the LSD1 target candidates (microarray): tranylcypromine 10^−4 M", "description": "(1) Comprehensive Analysis of LSD1 Target Genes in 3T3-L1 Cells, Using Microarray (FIG. 1)\nAn adipogenesis induction medium was prepared by dissolving […] 3-isobutyl-1-methylxanthine, 1 μM dexamethasone and 5 μg/ml insulin in a Dulbecco's modified Eagle's medium containing 10% fetal bovine serum. Total RNA was extracted using RNeasy mini column (Qiagen). Using GeneChip Mouse Genome Array 430—2 in combination with GeneChip Hybridization, Wash and Stain Kit (Affymetrix), genome-wide expression analysis was carried out\nThereafter, RNA analysis was carried out as described above. Using GeneChip Mouse Genome Array 430—2 in combination with GeneChip Hybridization, Wash and Stain Kit (Affymetrix), genome-wide expression analysis was carried out."}, "[7]": {"test_system": "LSD1 target genes such as PGC-1α in 3T3-L1 cells", "assay": "Expression of LSD1 target genes under inhibition of enzymes associated with FAD synthesis (quantitative RT-PCR)", "type": "cell-based, mouse", "conditions": "siRNA against FAD synthesis enzymes", "description": "(8) Induction of Expression of LSD1 Target Genes by Inhibition of Enzyme Associated with FAD Synthesis (FIG. 9)\n(§1) Using Trizol reagent (Invitrogen), total RNA was extracted from 3T3-L1 cells in which siRNA against riboflavin kinase (RFK) or FAD synthase (FADS) had been introduced. […] Using FAD assay kit (BioVision), the amount of FAD in the cells was measured under inhibition of FAD synthesis."}, "FAD in 3T3-L1 cells": {"test_system": "FAD in 3T3-L1 cells", "assay": "Amount of FAD in cells (FAD assay kit)", "type": "cell-based, mouse", "conditions": "FAD synthesis inhibited", "description": "as §1"}, "[8]": {"conditions": "3T3-L1 cells, 24 hours differentiation induction"}}, "note": "d = 2'-deoxy (DNA); r = 2'-OH (RNA)"}
{"compound": "N[C@@H]1C[C@H]1c1ccccc1", "note": "(racemic) [tranylcypromine, reference compound]", "values": [{"measurement": "activation of LSD1 target genes such as PGC-1α compared with other MAO inhibitors", "setting": "[1]", "value": "significant activation"}, {"measurement": "expression of LSD1 target genes including PGC-1α in fat around the testis", "setting": "[2]", "value": "increased"}, {"measurement": "expression of LSD1 target genes including PGC-1α in the liver", "setting": "[2]", "value": "The same results as described above were obtained"}, {"measurement": "amount of dimethylated H3K4 in other LSD1 target gene promoters such as PDK4", "setting": "[3]", "value": "The same results were obtained"}, {"measurement": "amount of dimethylated H3K4 in PGC-1α promoter", "setting": "[3]; under treatment", "value": "increase in the amount of dimethylated H3K4 was detected"}, {"measurement": "expression of luciferase reporter gene downstream of the PGC-1α promoter", "setting": "[4]", "value": "activated (disinhibited)"}, {"measurement": "amount of mitochondria (JC-1 green fluorescence, FL1)", "setting": "3T3-L1 cells", "value": "stimulatory effect"}, {"measurement": "mitochondrial membrane potential (JC-1 red fluorescence, FL2)", "setting": "3T3-L1 cells", "value": "stimulatory effect"}, {"measurement": "expression of genes such as PGC-1α (quantitative RT-PCR)", "setting": "[5]", "value": "Induction of the expression"}, {"measurement": "expression of the LSD1 target candidates (microarray)", "setting": "[6]; [8]", "value": "induced"}]}
{"compound": "BHC80 siRNA: siRNA against LSD1 coupling factor BHC80: sense SEQ ID NO: 31, antisense SEQ ID NO: 32 (sense GUUCCAGAUACAGCCAUUGTT; antisense CAAUGGCUGUAUCUGGAACTT; sugars from the 5' end r19 d2, backbone not given here)", "values": [{"measurement": "expression of genes such as PGC-1α (quantitative RT-PCR)", "setting": "[5]", "value": "Induction of the expression"}, {"measurement": "expression of the LSD1 target candidates (microarray)", "setting": "[6]; [8]", "value": "induced"}]}
{"compound": "FADS siRNA: siRNA against FAD synthase: sense SEQ ID NO: 35, antisense SEQ ID NO: 36 (sense GAGCCCUUGGAGGAAUGUCTT; antisense GACAUUCCUCCAAGGGCUCTT; sugars from the 5' end r19 d2, backbone not given here)", "values": [{"measurement": "expression of LSD1 target genes such as PGC-1α", "setting": "[7]", "value": "activated"}, {"measurement": "amount of FAD in a cell", "setting": "FAD in 3T3-L1 cells", "value": "decreased"}]}
{"compound": "LSD1 siRNA: siRNA against LSD1: sense SEQ ID NO: 29, antisense SEQ ID NO: 30 (sense CACAAGGAAAGCUAGAAGATT; antisense UCUUCUAGCUUUCCUUGUGTT; sugars from the 5' end r19 d2, backbone not given here)", "values": [{"measurement": "amount of dimethylated H3K4 in PGC-1α gene promoter versus control", "setting": "[3]", "value": "approximately 2 fold"}, {"measurement": "amount of dimethylated H3K4 in other LSD1 target gene promoters such as PDK4", "setting": "[3]", "value": "The same results were obtained"}, {"measurement": "expression of luciferase reporter gene downstream of the PGC-1α promoter", "setting": "[4]", "value": "activated (disinhibited)"}, {"measurement": "amount of mitochondria (JC-1 green fluorescence, FL1)", "setting": "3T3-L1 cells", "value": "the same results were obtained"}, {"measurement": "mitochondrial membrane potential (JC-1 red fluorescence, FL2)", "setting": "3T3-L1 cells", "value": "the same results were obtained"}, {"measurement": "expression of genes such as PGC-1α (quantitative RT-PCR)", "setting": "[5]", "value": "Induction of the expression"}, {"measurement": "number of target candidates induced to a higher level (2-fold or more)", "setting": "[6]; differentiating 3T3-L1 cells, 24 hours in differentiation induction medium, microarray", "value": 601}]}
{"compound": "RFK siRNA: siRNA against riboflavin kinase: sense SEQ ID NO: 33, antisense SEQ ID NO: 34 (sense UCUUCCAGCUGAUGUGUCUTT; antisense AGACACAUCAGCUGGAAGATT; sugars from the 5' end r19 d2, backbone not given here)", "values": [{"measurement": "expression of LSD1 target genes such as PGC-1α", "setting": "[7]", "value": "activated"}, {"measurement": "amount of FAD in a cell", "setting": "FAD in 3T3-L1 cells", "value": "decreased"}, {"measurement": "expression of a majority of LSD1 target genes (microarray)", "setting": "[6]; 3T3-L1 cells, RFK knock-down, 24 hours differentiation induction", "value": "induced"}]}
